Non-standard residues stand in square brackets, D forms with d. Residues, ends and D or L forms follow the SMILES beside them. *: point of attachment. Hyp = O=C(O)[C@@H]1C[C@@H](O)CN1; pGlu = O=C1CC[C@@H](C(=O)O)N1; Boc = CC(C)(C)OC(=O)*; βAla = NCCC(=O)O; Sar = CNCC(=O)O
What follows are compounds tested against T1, General amino-acid permease GAP1 (Saccharomyces cerevisiae) (UniProt P19145). Conditions: sigma1278b, at 5 mM.
T1 sequence (whole entry): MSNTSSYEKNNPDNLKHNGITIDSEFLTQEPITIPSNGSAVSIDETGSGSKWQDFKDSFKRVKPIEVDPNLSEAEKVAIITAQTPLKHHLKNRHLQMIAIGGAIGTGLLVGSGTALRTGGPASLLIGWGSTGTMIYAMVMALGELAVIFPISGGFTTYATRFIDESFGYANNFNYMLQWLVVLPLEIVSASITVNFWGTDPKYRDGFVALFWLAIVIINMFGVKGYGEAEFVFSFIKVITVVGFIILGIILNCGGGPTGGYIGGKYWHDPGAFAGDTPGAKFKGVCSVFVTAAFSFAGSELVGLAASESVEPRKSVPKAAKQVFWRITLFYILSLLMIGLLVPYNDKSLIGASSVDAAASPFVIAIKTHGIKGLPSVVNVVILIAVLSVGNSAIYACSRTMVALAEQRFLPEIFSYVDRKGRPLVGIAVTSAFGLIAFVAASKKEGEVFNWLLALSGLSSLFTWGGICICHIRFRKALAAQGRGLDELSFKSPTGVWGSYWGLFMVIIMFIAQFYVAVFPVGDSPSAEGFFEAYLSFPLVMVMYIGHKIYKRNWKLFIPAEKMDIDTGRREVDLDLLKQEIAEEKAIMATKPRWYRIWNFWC
Description: Inhibition of nitrogen-starved wild type sigma1278b yeast Gap1-mediated amino acid uptake at 5 mM after 60 secs relative to L-citrulline
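Also: amino acid uptake through Gap1 in nitrogen-starved wild-type yeast cells, measured after 60 s and expressed relative to L-citrulline.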

| Compound | inhibition [%] |
| --- | --- |
| N[C@@H](Cc1c[nH]c2ccccc12)C(=O)N[C@@H](CCC(=O)O)C(=O)O (H-Trp-Glu-OH) | < 15 |
| N[C@@H](Cc1ccc(O)cc1)C(=O)N[C@@H](Cc1ccc(O)cc1)C(=O)NCC(=O)O (H-Tyr-Tyr-Gly-OH) | < 15 |
| CCOC(=O)C(N)Cc1c[nH]c2ccccc12 (racemic) | < 15 |
| CC(C)C[C@H](N)C(=O)N[C@@H](Cc1cnc[nH]1)C(=O)O (H-Leu-His-OH) | > 30 |
| CC(N)(Cc1ccccc1)C(=O)O (stereo not drawn) | < 15 |
| NCC(=O)NCC(=O)NCCC(=O)O (H-Gly-Gly-[βAla]-OH) | < 15 |
| CC(C)(C)OC(=O)NCC(=O)N1CCC[C@H]1C(=O)N1CCC[C@H]1C(=O)O (Boc-Gly-Pro-Pro-OH) | < 15 |
| NCC(=O)NCCC(=O)O | < 15 |
| O=C(O)CNC(=O)[C@H](Cc1cnc[nH]1)NC(=O)[C@@H]1CCC(=O)N1 ([pGlu]-His-Gly-OH) | < 15 |
| C[C@H](NC(=O)[C@@H](N)CCC(N)=O)C(=O)O (H-Gln-Ala-OH) | < 15 |
| N[C@@H](Cc1ccc(O)cc1)C(=O)N[C@@H](Cc1ccc(O)cc1)C(=O)N[C@@H](Cc1ccc(O)cc1)C(=O)O (H-Tyr-Tyr-Tyr-OH) | < 15 |
| NCC[C@H]1CC[C@H](C(=O)O)CC1 | < 15 |
| C[C@H](NC(=O)[C@@H](N)Cc1ccc(O)cc1)C(=O)N[C@@H](CCCNC(=N)N)C(=O)O (H-Tyr-Ala-Arg-OH) | < 15 |
| C[C@H](N)C(=O)NCC(=O)O (racemic) | > 30 |
| CC(C)[C@H](NC(=O)[C@@H](N)Cc1ccccc1)C(=O)O (H-Phe-Val-OH) | < 15 |
| CC(C)C[C@H](NC(=O)CNC(=O)c1ccccc1)C(N)=O | < 15 |
| CC(=O)N1CCC[C@H]1C(=O)N[C@@H](Cc1ccccc1)C(=O)N[C@@H](CCCNC(=N)N)C(=O)O (Ac-Pro-Phe-Arg-OH) | < 15 |
| CC[C@H](C)[C@H](N)C(=O)OC | < 15 |
| CC(C)C[C@H](NC(=O)[C@H](Cc1cnc[nH]1)NC(=O)CN)C(N)=O (H-Gly-His-Leu-NH2) | < 15 |
| NCC(=O)N[C@@H](Cc1cnc[nH]1)C(=O)NCC(=O)O (H-Gly-His-Gly-OH) | < 15 |

| Compound | inhibition [%] |
| --- | --- |
| COC(=O)[C@H](C)N | < 15 |
| CN(CC(=O)O)C(=O)CN (H-Gly-[Sar]-OH) | < 15 |
| COC(=O)CC[C@H](N)C(=O)OC | < 15 |
| N[C@@H](Cc1cnc[nH]1)C(=O)N[C@@H](Cc1ccccc1)C(=O)O (H-His-Phe-OH) | < 15 |
| CC(C)C[C@H](N)C(=O)N1C[C@H](O)C[C@H]1C(=O)O (H-Leu-[Hyp]-OH) | < 15 |
| COC(=O)[C@@H]1C[C@@H](O)CN1 | < 15 |
| NC(=O)[C@@H]1CCCN1 | < 15 |
| C[C@H](N)C(=O)N[C@@H](Cc1cnc[nH]1)C(=O)O (H-Ala-His-OH) | > 30 |
| CSCC[C@H](N)C(=O)N[C@@H](CCCNC(=N)N)C(=O)N[C@@H](Cc1ccccc1)C(=O)O (H-Met-Arg-Phe-OH) | 15 |
| N[C@@H](CS)C(=O)NCC(=O)O | < 15 |
| CN(CC(=O)O)C(=O)CNC(=O)CN (H-Gly-Gly-[Sar]-OH) | < 15 |
| COC(=O)[C@@H](N)CO | < 15 |
| N[C@@H](Cc1cnc[nH]1)C(=O)NCCS(=O)(=O)O | < 15 |
| N[C@@H](Cc1ccc(O)cc1)C(=O)NCC(=O)O | < 15 |
| CC(C)[C@H](N)C(=O)N[C@H](C(=O)N[C@@H](C(=O)O)C(C)C)C(C)C (H-Val-Val-[dV]-OH) | < 15 |
| N[C@@H](CO)C(=O)N[C@@H](CO)C(=O)N[C@@H](CO)C(=O)O (H-Ser-Ser-Ser-OH) | < 15 |
| NCC(=O)N[C@@H](Cc1ccccc1)C(=O)O | > 30 |
| C[C@@H](O)[C@H](NC(=O)[C@H](CCCCN)NC(=O)[C@@H](N)Cc1ccc(O)cc1)C(=O)O (H-Tyr-Lys-Thr-OH) | < 15 |
| CSCC[C@@H](N)C(=O)NCC(=O)O (H-[dM]-Gly-OH) | < 15 |
| CC(C)C[C@H](N)C(=O)NCC(=O)N1CCC[C@H]1C(=O)O (H-Leu-Gly-Pro-OH) | < 15 |

Results, then the compound that gave them:

| inhibition [%] | Compound |
| --- | --- |
| < 15 | CC(C)C[C@H](NC(=O)CNC(=O)CN)C(=O)O |
| < 15 | CSCC[C@H](N)C(=O)N[C@@H](C)C(=O)N[C@@H](CO)C(=O)O (H-Met-Ala-Ser-OH) |
| < 15 | CSCCC(NC(=O)C(C)N)C(=O)O (racemic) |
| < 15 | CSCC[C@H](NC(=O)CN)C(=O)N[C@@H](CC(C)C)C(=O)O (H-Gly-Met-Leu-OH) |
| < 15 | CSCC[C@H](NC(=O)OC(C)(C)C)C(=O)O |
| < 15 | CC(C)(C)OC(=O)N[C@@H](CCCCN)C(=O)O |
| < 15 | NCC(=O)NCC(=O)N[C@@H](CC(=O)O)C(=O)O (H-Gly-Gly-Asp-OH) |
| < 15 | CC(C)C[C@H](NC(=O)[C@@H](N)CCC(=O)O)C(=O)O (H-Glu-Leu-OH) |
| < 15 | CC(C)C[C@H](NC(=O)OC(C)(C)C)C(=O)O |
| < 15 | CC(=O)N[C@@H](COC(C)(C)C)C(=O)O |
| 15 | CC(C)[C@H](N)C(=O)N[C@H](C(=O)O)C(C)C (H-Val-Val-OH) |
| < 15 | CC(=O)NCC(=O)N[C@@H](Cc1cnc[nH]1)C(=O)N[C@@H](CCCCN)C(=O)O (Ac-Gly-His-Lys-OH) |
| < 15 | C[C@H](NC(=O)CNC(=O)CN)C(=O)O |
| < 15 | CC(C)[C@@H](NC(=O)OC(C)(C)C)C(=O)O |
| < 15 | CC[C@H](C)[C@H](NC(=O)CNC(=O)CN)C(=O)O (H-Gly-Gly-Ile-OH) |
| < 15 | CC(C)C[C@@H](NC(=O)CNC(=O)CN)C(=O)O |
| < 15 | CSCC[C@H](N)C(=O)N[C@@H](Cc1cnc[nH]1)C(=O)O (H-Met-His-OH) |

| inhibition [%] | Compound |
| --- | --- |
| < 15 | CSCC[C@H](NC(=O)[C@@H](N)CCSC)C(=O)N[C@@H](C)C(=O)O (H-Met-Met-Ala-OH) |
| < 15 | CC(C)(C)OC(=O)N[C@@H](CCCNC(=N)N)C(=O)O |
| < 15 | C[C@@H](O)[C@H](NC(=O)OC(C)(C)C)C(=O)O |
| < 15 | CC(C)C[C@@H](NC(=O)OC(C)(C)C)C(=O)O |
| < 15 | NCCCC[C@H](NC(=O)[C@@H](N)CCCCN)C(=O)O |
| < 15 | NC(=O)CC[C@H](NC(=O)[C@@H](N)CO)C(=O)O (H-Ser-Gln-OH) |
| < 15 | CCCC[C@H](NC(=O)OC(C)(C)C)C(=O)O |
| < 15 | CCCC(NC(=O)C(C)N)C(=O)O (racemic) |
| < 15 | CC[C@H](C)[C@H](NC(=O)[C@@H](N)CC(C)C)C(=O)O (H-Leu-Ile-OH) |
| 15 | CSCC[C@H](NC(=O)[C@@H](N)Cc1cnc[nH]1)C(=O)O (H-His-Met-OH) |
| > 30 | CC(C)CC(N)C(=O)NC(CC(C)C)C(=O)O (racemic) |
| < 15 | C[C@H](N)C(=O)N[C@@H](CCC(=O)O)C(N)=O (H-Ala-Glu-NH2) |
| < 15 | CC(C)C[C@H](NC(=O)CN)C(N)=O |
| < 15 | CC[C@H](C)[C@H](NC(=O)CN)C(=O)NCC(=O)O (H-Gly-Ile-Gly-OH) |
| < 15 | CSCC[C@H](N)C(=O)N[C@@H](CC(C)C)C(=O)O (H-Met-Leu-OH) |
| < 15 | NCC(=O)NCC(=O)N[C@@H](CO)C(=O)O |

Source: ChEMBL document CHEMBL1221220, “Transport and signaling via the amino acid binding site of the yeast Gap1 amino acid transceptor” (Nat Chem Biol, 2009)
